Laboratory results reported in PMC12951562, “SH2scan: Mapping SH2 Domain-Ligand Binding Selectivity for Inhibitors and Degraders” (Journal of Medicinal Chemistry, 2026).
Numbering of substitutions follows the chain as printed. Non-standard residues stand in square brackets, D forms with d. Residues, ends and D or L forms follow the SMILES beside them. pY = N[C@@H](Cc1ccc(OP(=O)(O)O)cc1)C(=O)O

Experiments:
Experiment in all cases: biochemical
Assay type in all cases: binding
STAT6 = target: T1, STAT6 (Homo sapiens, UniProt P42226)
T1 construct: made in house; host or cells: HEK293 (transient transfection), unpurified extract
T1 sequence (P42226 1-847): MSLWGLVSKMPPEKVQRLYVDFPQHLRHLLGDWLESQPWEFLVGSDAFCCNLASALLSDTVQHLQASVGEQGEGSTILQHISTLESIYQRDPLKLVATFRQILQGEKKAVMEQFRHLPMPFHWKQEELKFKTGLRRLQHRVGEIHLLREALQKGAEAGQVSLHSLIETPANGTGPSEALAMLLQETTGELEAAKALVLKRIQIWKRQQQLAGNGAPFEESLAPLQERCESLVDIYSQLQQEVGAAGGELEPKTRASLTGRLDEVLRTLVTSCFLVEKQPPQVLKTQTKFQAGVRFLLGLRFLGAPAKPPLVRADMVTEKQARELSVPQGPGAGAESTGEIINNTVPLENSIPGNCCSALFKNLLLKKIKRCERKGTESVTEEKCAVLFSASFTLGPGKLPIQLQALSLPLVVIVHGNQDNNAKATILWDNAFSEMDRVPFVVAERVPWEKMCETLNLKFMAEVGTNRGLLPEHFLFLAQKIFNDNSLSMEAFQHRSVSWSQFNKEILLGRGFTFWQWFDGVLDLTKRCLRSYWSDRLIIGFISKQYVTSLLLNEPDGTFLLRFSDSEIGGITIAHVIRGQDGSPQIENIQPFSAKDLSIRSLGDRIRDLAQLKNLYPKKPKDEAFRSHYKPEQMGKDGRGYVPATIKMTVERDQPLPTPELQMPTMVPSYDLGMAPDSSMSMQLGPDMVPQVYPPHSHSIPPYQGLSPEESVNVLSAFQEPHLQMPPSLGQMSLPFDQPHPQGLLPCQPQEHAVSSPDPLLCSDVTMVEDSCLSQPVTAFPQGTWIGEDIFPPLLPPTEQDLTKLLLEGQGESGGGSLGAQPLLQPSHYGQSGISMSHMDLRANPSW

STAT5B(N642H) = target: T2, STAT5B(N642H) (Homo sapiens, UniProt P51692, N642H)
T2 construct: made in house; host or cells: HEK293 (transient transfection), unpurified extract
T2 sequence (P51692 1-787 N642H): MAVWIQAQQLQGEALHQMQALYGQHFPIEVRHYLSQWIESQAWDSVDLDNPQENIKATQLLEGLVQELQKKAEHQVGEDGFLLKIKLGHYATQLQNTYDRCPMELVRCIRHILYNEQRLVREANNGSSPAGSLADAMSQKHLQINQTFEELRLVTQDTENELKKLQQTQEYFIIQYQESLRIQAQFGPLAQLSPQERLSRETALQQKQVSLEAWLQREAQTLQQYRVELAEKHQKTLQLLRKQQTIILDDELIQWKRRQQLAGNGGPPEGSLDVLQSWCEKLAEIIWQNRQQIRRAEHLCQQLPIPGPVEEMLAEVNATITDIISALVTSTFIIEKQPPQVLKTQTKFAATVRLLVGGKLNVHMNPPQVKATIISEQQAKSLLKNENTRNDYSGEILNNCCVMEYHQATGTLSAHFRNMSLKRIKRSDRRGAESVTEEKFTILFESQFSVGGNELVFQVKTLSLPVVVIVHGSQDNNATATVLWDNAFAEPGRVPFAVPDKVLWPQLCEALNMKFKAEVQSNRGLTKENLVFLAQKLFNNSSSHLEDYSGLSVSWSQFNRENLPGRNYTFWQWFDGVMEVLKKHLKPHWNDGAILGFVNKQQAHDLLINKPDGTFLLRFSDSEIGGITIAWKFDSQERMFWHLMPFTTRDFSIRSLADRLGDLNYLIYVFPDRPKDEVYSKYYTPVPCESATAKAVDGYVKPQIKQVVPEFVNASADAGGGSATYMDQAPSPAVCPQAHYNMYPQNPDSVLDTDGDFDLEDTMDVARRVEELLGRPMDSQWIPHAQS

STAT5B = target: T3, STAT5B (Homo sapiens, UniProt P51692)
T3 construct: made in house; host or cells: HEK293 (transient transfection), unpurified extract
T3 sequence (P51692 1-787): T2 sequence (P51692 1-787 N642H) with H642N

FER = target: T4, FER (Homo sapiens, UniProt P16591)
T4 construct: the DNA-tagged SH2 domain concentrations used in this study were <0.1 nM; made in house; host or cells: HEK293 (transient transfection; unpurified extract)
T4 sequence (P16591 460-550 limits assumed): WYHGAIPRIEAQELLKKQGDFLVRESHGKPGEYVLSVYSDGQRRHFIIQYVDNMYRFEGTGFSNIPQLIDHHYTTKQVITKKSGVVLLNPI

STAT1 = target: T5, STAT1 (Homo sapiens, UniProt P42224)
T5 construct: made in house; host or cells: HEK293 (transient transfection), unpurified extract
T5 sequence (P42224 1-750): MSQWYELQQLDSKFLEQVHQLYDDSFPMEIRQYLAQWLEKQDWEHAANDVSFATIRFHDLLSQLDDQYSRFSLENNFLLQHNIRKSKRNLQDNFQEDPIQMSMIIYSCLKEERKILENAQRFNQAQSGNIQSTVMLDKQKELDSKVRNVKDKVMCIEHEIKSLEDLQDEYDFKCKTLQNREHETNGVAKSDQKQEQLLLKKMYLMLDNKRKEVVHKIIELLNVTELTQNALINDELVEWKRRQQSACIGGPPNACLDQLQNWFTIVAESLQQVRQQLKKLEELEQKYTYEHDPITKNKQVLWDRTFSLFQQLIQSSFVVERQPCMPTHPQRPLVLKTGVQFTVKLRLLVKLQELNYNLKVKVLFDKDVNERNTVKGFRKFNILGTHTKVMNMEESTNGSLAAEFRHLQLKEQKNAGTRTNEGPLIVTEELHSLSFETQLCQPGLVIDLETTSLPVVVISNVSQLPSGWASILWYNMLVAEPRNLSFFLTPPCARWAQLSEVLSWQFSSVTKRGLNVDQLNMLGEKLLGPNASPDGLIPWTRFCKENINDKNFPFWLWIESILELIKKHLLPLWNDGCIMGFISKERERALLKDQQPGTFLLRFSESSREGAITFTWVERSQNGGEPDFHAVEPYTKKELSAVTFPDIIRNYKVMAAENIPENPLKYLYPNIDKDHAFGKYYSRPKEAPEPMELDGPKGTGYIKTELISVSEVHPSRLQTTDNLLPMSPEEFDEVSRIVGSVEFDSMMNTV

PIK3R1(SH2dom.C-term.) = target: T6, PIK3R1(SH2dom.C-term.) (Homo sapiens, UniProt P27986)
T6 construct: SH2dom.C-term. denotes SH2 domain closest to C-terminus of protein; made in house; host or cells: HEK293 (transient transfection, unpurified extract)
T6 sequence (P27986 624-718 limits assumed): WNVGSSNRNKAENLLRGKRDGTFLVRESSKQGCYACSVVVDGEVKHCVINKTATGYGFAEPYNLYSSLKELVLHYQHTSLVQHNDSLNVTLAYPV

PIK3R3(SH2dom.C-term.) = target: T7, PIK3R3(SH2dom.C-term.) (Homo sapiens, UniProt Q92569)
T7 construct: SH2dom.C-term. denotes SH2 domain closest to C-terminus of protein; made in house; host or cells: HEK293 (transient transfection, unpurified extract)

PIK3R2(SH2dom.C-term.) = target: T8, PIK3R2(SH2dom.C-term.) (Homo sapiens, UniProt O00459)
T8 construct: SH2dom.C-term. denotes SH2 domain closest to C-terminus of protein; made in house; host or cells: HEK293 (transient transfection, unpurified extract)
T8 sequence (O00459 622-716 limits assumed): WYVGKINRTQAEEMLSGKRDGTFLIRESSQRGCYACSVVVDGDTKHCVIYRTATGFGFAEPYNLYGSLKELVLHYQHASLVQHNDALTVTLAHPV

ABL1 = target: T9, ABL1 (Homo sapiens, UniProt P00519)
T9 construct: the DNA-tagged SH2 domain concentrations used in this study were <0.1 nM; made in house; host or cells: HEK293 (transient transfection; unpurified extract)
T9 sequence (P00519 127-217 limits assumed): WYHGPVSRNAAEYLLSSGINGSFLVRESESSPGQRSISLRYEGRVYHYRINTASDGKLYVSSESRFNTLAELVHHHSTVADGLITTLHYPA

STAT4 = target: T10, STAT4 (Homo sapiens, UniProt Q14765)
T10 construct: made in house; host or cells: HEK293 (transient transfection), unpurified extract
T10 sequence (Q14765 1-748): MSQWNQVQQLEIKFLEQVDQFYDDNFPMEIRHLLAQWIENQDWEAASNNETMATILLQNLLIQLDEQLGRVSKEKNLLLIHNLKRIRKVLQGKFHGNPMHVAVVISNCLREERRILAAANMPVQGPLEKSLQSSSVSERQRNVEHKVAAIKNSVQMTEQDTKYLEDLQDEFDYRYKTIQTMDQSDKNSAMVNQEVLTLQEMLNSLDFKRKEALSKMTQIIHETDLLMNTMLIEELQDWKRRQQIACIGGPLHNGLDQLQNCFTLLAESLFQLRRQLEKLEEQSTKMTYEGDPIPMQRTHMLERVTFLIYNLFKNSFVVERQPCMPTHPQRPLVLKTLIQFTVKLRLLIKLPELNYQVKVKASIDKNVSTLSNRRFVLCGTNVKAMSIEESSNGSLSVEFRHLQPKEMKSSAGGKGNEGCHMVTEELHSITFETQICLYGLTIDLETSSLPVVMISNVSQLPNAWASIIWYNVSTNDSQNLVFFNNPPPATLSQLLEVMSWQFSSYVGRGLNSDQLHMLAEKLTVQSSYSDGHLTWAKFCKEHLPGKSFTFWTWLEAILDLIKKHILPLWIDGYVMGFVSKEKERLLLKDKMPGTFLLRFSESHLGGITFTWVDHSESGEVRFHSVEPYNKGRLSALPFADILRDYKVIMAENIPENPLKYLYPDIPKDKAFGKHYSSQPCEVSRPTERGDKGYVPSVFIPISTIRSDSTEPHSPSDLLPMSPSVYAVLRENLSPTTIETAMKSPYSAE

Compound `CC[C@H](C)[C@H](NC(=O)[C@H](CC(C)C)NC(=O)[C@H](CC(=O)O)NC(=O)[C@H](CCC(N)=O)NC(=O)[C@H](Cc1ccccc1)NC(=O)[C@@H]1CCCN1C(=O)[C@H](CCCCN)NC(=O)[C@H](Cc1ccc(OP(=O)(O)O)cc1)NC(C)=O)C(N)=O` (Ac-[pY]KPFQDLI-NH2) has a Kd (STAT6) of 928 ± 249 nM.

`CC(C)C[C@H](NC(=O)[C@H](Cc1c[nH]c2ccccc12)NC(=O)[C@H](CCCCN)NC(=O)[C@H](CC(=O)O)NC(=O)[C@H](CC(C)C)NC(=O)[C@@H](NC(=O)[C@H](CC(C)C)NC(=O)[C@H](Cc1ccc(OP(=O)(O)O)cc1)NC(=O)[C@@H](NC(=O)[C@H](CC(=O)O)NC(=O)[C@@H](N)CCC(N)=O)[C@@H](C)O)C(C)C)C(=O)O` (H-QDT[pY]LVLDKWL-OH) was tested, and the Kd (STAT5B(N642H)) was 97.8 ± 43.3 nM and the Kd (STAT5B) was 1020 ± 179 nM.

With `CC(=O)N[C@@H](CC(=O)O)C(=O)N[C@@H](CCC(=O)O)C(=O)N[C@@H](Cc1ccc(OP(=O)(O)O)cc1)C(=O)N[C@@H](CCC(=O)O)C(=O)N[C@@H](CC(N)=O)C(=O)N[C@H](C(=O)N[C@@H](CC(=O)O)C(N)=O)C(C)C` [Ac-DEpYENVD-NH2] (Ac-DE[pY]ENVD-NH2) the Kd (FER) was 7770 ± 2130 nM.

`CC(=O)NCC(=O)N[C@@H](Cc1ccc(OP(=O)(O)O)cc1)C(=O)N[C@@H](CC(=O)O)C(=O)N[C@@H](CCCCN)C(=O)N1CCC[C@H]1C(=O)N[C@@H](Cc1c[nH]cn1)C(=O)N[C@H](C(=O)N[C@@H](CC(C)C)C(N)=O)C(C)C` [Ac-GpYDKPHVL-NH2] (Ac-G[pY]DKPHVL-NH2) gave a Kd (STAT1) of 155 ± 38.2 nM.

Compound `CSCC[C@H](NC(=O)[C@@H]1CCCN1C(=O)[C@@H](NC(=O)[C@H](Cc1ccc(OP(=O)(O)O)cc1)NC(=O)CNC(C)=O)C(C)C)C(=O)N[C@@H](CC(C)C)C(=O)O` [Ac-GpYVPML-OH] (Ac-G[pY]VPML-OH) has a Kd (PIK3R1(SH2dom.C-term.)) of 4.24 ± 0.48 nM, a Kd (PIK3R3(SH2dom.C-term.)) of 2.27 ± 0.32 nM and a Kd (PIK3R2(SH2dom.C-term.)) of 4.82 ± 1.95 nM.

`CC(=O)N[C@@H](CCCCN)C(=O)N[C@@H](CCC(=O)O)C(=O)N[C@@H](CCC(=O)O)C(=O)NCC(=O)N[C@@H](Cc1ccc(OP(=O)(O)O)cc1)C(=O)N[C@@H](CCC(=O)O)C(=O)N[C@@H](CC(C)C)C(=O)N1CCC[C@H]1C(=O)N[C@@H](Cc1ccc(O)cc1)C(=O)N[C@@H](CC(N)=O)C(=O)N1CCC[C@H]1C(N)=O` [Ac-KEEGpYELPYNP-NH2] gave a Kd (ABL1) of 28800 ± 8130 nM.

For `CSCC[C@H](NC(=O)[C@H](CC(=O)O)NC(=O)[C@H](Cc1ccc(OP(=O)(O)O)cc1)NC(=O)[C@H](CC(=O)O)NC(=O)[C@H](Cc1ccccc1)NC(=O)[C@H](CO)NC(C)=O)C(=O)N1CCC[C@H]1C(=O)N[C@@H](Cc1c[nH]cn1)C(=O)N[C@H](C(=O)N[C@@H](CC(C)C)C(N)=O)C(C)C` [Ac-SFDpYDMPHVL-NH2] (Ac-SFD[pY]DMPHVL-NH2), the Kd (STAT4) was 1280 ± 133 nM.
